Laboratory results reported in ChEMBL document CHEMBL1140671, “Interaction of O-(undec-10-en)-yl-D-glucose derivatives with the Plasmodium falciparum hexose transporter (PfHT)” (Bioorg Med Chem Lett, 2007).
Active and inactive are the calls of the source. The calls are words filed in the database; no cut-off is given here.

Legend:
[1] = molecular target: T1, Solute carrier family 2, facilitated glucose transporter member 1 (Homo sapiens) (UniProt P11166); assay: (§1) Inhibition of [3H]glucose uptake at mammalian GLUT1 expressed in Xenopus laevis oocytes; type: cell-based; conditions: Oocyte
T1 sequence (whole entry): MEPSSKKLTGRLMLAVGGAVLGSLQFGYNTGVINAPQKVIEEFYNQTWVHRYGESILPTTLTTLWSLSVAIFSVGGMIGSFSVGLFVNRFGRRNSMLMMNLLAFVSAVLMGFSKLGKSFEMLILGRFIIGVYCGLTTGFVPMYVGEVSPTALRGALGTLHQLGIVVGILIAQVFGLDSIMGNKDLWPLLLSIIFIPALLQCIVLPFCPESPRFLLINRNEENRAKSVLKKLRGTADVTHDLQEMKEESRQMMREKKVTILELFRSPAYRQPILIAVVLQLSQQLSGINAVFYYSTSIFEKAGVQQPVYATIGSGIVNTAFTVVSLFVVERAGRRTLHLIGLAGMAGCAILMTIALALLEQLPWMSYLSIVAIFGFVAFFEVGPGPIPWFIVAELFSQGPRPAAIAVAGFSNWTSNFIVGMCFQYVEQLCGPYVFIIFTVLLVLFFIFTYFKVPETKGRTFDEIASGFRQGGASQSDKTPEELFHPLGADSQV

Hexose transporter 1 = molecular target: T2, Hexose transporter 1 (Plasmodium falciparum, UniProt O97467); assay: Inhibition of [3H]glucose uptake at Plasmodium falciparum HT expressed in Xenopus laevis oocytes; type: cell-based, Oocyte
T2 sequence (O97467 whole entry): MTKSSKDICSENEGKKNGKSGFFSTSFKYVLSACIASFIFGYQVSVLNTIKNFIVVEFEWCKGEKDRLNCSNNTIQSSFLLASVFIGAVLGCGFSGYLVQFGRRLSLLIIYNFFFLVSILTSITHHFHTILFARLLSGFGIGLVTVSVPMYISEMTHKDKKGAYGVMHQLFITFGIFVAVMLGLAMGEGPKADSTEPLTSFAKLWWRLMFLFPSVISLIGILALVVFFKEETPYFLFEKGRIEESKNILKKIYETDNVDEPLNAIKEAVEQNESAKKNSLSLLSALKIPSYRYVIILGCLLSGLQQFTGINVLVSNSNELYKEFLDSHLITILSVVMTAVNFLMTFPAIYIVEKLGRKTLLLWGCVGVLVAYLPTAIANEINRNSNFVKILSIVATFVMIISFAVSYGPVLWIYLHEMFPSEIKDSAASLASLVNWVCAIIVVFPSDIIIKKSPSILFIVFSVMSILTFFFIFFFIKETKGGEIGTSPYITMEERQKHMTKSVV

Plasmodium falciparum = assay: Antiplasmodial activity against Plasmodium falciparum 3D7; type: functional, organism-based
[2] = molecular target: T3, Solute carrier family 2, facilitated glucose transporter member 1 (Homo sapiens, UniProt P11166); assay: as §1; type: cell-based, Oocyte
T3 sequence (P11166 whole entry): T1 sequence (whole entry)

Compound | Activity [1] | Ki (Hexose transporter 1) [µM] | IC50 (Plasmodium falciparum) [µM] | Ki [2] [µM]
C=CCCCCCCCCCO[C@H]1C(O)O[C@H](CO)[C@@H](O)[C@@H]1O (stereo partly drawn) | inactive | 2 | 8.2 | –
C=CCCCCCCCCCO[C@H]1[C@H](O)[C@@H](CO)OC(O)[C@@H]1O (stereo partly drawn) | – | 26 | 123 | 98
C=CCCCCCCCCCO[C@H]1O[C@H](CO)[C@@H](O)[C@H](O)[C@H]1O | inactive | > 500 | – | –
C=CCCCCCCCCCO[C@H]1O[C@H]([C@H](O)CO)[C@H](O)[C@H]1O | inactive | > 500 | – | –
C=CCCCCCCCCCOC[C@H]1OC(O)[C@H](O)[C@@H](O)[C@@H]1O (stereo partly drawn) | – | 2000 | – | 400
C=CCCCCCCCCCO[C@@H]1O[C@H](CO)[C@@H](O)[C@H](O)[C@H]1O | – | > 500 | – | > 500
C=CCCCCCCCCCO[C@H](CO)[C@H]1OC(O)[C@H](O)[C@H]1O (stereo partly drawn) | inactive | 1500 | – | –
C=CCCCCCCCCCO[C@@H]1O[C@H]([C@H](O)CO)[C@H](O)[C@H]1O | inactive | > 500 | – | –
